Assay results taken from patent US20220184041A1, “(AZA)Benzothiazolyl Substituted Pyrazole Compounds” (Pfizer Inc., priority 2020, published 2022).
Where two headings read alike, the source gives them in different places.

Key:
Bap-tagged TTR protein = target: T1, Bap-tagged TTR protein (Homo sapiens, UniProt P02766); experiment: KD determination by SPR (Surface Plasmon Resonance binding assay); settings: for Kd: 1:1 binding model, read-out: Geometric Mean KD (μM) [SPR]
T1 construct: Bap tag (biotin acceptor peptide, by own knowledge)
Procedure: Affinity and Reversibility—The binding affinity and kinetics of binding were measured using Surface Plasmon Resonance based binding assay. […] Bap-tagged TTR protein was captured on a Streptavidin coated sensor chip to achieve about 2000 to 3000 RUs of surface density. All the samples were prepared in buffer consisting of 10 mM Sodium Phosphate, pH 7.6, 100 mM KCl, 0.005% Tween-20 and 2% DMSO. The same buffer was used as the running buffer during the experiments. Compound samples were injected at a flow rate of 30 μL/min for 90 seconds of association time followed by at least 240 seconds of dissociation period. The compounds were tested in a concentration series consisting of at least 6 samples (usually 10) made with 5-fold, 3-fold, or 2-fold dilution. […] Multiple blank injections were run before and after each compound series to allow double reference subtraction during data processing and analysis. […] A DMSO curve was run during each experiment to properly correct for excluded volume.

[1] = target: Recombinant wild-type TTR (Homo sapiens, UniProt P02766); experiment: KD determination by ITC (Isothermal Titration Calorimetry); settings: 25° C., sequential binding model with 2 sites
Procedure: KD Determination by ITC—Isothermal Titration Calorimetry
Recombinant wild-type TTR was diluted to 6.9 μM in 100 mM potassium chloride, 10 mM sodium phosphate pH 7.6, 2.5% DMSO, then degassed and transferred to the sample cell of a VP-ITC instrument (MicroCal). Compounds were diluted to 120 μM in an identical buffer, degassed, and injected 7 μL at a time into the protein solution at 25° C. with a reference power of 10 μCal/sec and 300 second spacing between injections.
Data were analyzed using VP-ITC analysis software in Origin. The data were corrected for heat of dilution then fit to a sequential binding model with 2 sites and K1, ΔH1, K2, and ΔH2 as independent parameters. If necessary, the protein concentration was adjusted by fitting the data to a two-independent-sites model and using the calculated N values to estimate the actual protein concentration that yields two total sites.

[2] = target: T2, human TTR (biotinylated recombinant protein) (Homo sapiens, UniProt P02766); experiment: TTR SPA binding assay ([3H] tafamidis displacement), EC50 determination; settings: read-out: Geometric Mean EC50
T2 construct: biotin (biotinylated)
Procedure: Binding of Examples to Transthyretin—EC50 Determination
Briefly, assays were prepared at room temperature in 384-well plates (Corning, 3767) containing 200 nL of test compound in DMSO (or DMSO as vehicle). […] The plates were incubated 1 hour prior to addition of 20 μL of 1.25 mg/mL SPA beads diluted in assay buffer. The assays were incubated an additional 10 hours to allow binding to reach equilibrium and the amount of receptor-ligand complex was determined by liquid scintillation counting using a 1450 Microbeta Trilux (Wallac).
The % effect values for test wells were calculated based on the total binding (vehicle, 0% effect) and non-specific binding (unlabeled ligand, 100% effect) wells on each assay plate. EC50 values were then determined using a standard 4 parameter logistic dose response equation.

[3] = first site, read-out: Geometric Mean KD1 (μM) [ITC]
[4] = second site, read-out: Geometric Mean KD2 (μM) [ITC]
[5] = SPA, 50 nM [3H] tafamidis, 100 ng human TTR

Row | SMILES | Kd (Bap-tagged TTR protein) [µM] | EC50 [2, 5] [µM] | other results
1 | Cc1n[nH]c(C)c1-c1cccc2ncsc12 [Example 2, 7-(3,5-dimethyl-1H-pyrazol-4-yl)-1,3-benzothiazole] |  |  | Kd [1, 3]: 0.005 µM; Kd [1, 4]: 0.431 µM
2 | Cc1n[nH]c(C)c1-c1ccc(C)c2scnc12 [Example 3, 4-(3,5-dimethyl-1H-pyrazol-4-yl)-7-methyl-1,3-benzothiazole] | 0.02 | 0.02 | 
3 | Cc1n[nH]c(C)c1-c1ccc(C#N)c2scnc12 [Example 5, 4-(3,5-dimethyl-1H-pyrazol-4-yl)-1,3-benzothiazole-7-carbonitrile] | 0.052 | 0.052 | 
4 | Cc1nc2c(-c3c(C)n[nH]c3C)cccc2s1 [Example 6, 4-(3,5-dimethyl-1H-pyrazol-4-yl)-2-methyl-1,3-benzothiazole] | 0.574 | 1.78 | 
5 | Cc1[nH]nc(C#N)c1-c1cccc2scnc12 [Example 7, 4-(1,3-benzothiazol-4-yl)-5-methyl-1H-pyrazole-3-carbonitrile] | 0.074 | 0.0661 | 
6 | Cc1[nH]nc(C#N)c1-c1ccc(C)c2scnc12 [Example 8, 5-methyl-4-(7-methyl-1,3-benzothiazol-4-yl)-1H-pyrazole-3-carbonitrile] | 0.027 |  | EC50 [2]: 0.0196 µM
7 | Cc1[nH]nc(C#N)c1-c1ccc(C(F)(F)F)c2scnc12 [Example 9, 5-methyl-4-[7-(trifluoromethyl)-1,3-benzothiazol-4-yl]-1H-pyrazole-3-carbonitrile] | 0.62 |  | EC50 [2]: 0.0355 µM
8 | Cc1n[nH]c(C)c1-c1ccc(F)c2scnc12 [Example 12, 4-(3,5-dimethyl-1H-pyrazol-4-yl)-7-fluoro-1,3-benzothiazole] |  | 0.0372 | 
9 | COc1cc(-c2c(C)n[nH]c2C)c2ncsc2c1 [Example 14, 4-(3,5-dimethyl-1H-pyrazol-4-yl)-6-methoxy-1,3-benzothiazole] | 0.031 |  | EC50 [2]: 0.0245 µM
10 | Cc1n[nH]c(C)c1-c1cc(C#N)cc2scnc12 [Example 16, 4-(3,5-dimethyl-1H-pyrazol-4-yl)-1,3-benzothiazole-6-carbonitrile] |  | 0.159 | 
11 | Cc1n[nH]c(C)c1-c1c(F)ccc2scnc12 [Example 17, 4-(3,5-dimethyl-1H-pyrazol-4-yl)-5-fluoro-1,3-benzothiazole] |  | 0.0287 | 
12 | Cc1[nH]nc(C(F)(F)F)c1-c1cccc2scnc12 [Example 18, 4-[5-methyl-3-(trifluoromethyl)-1H-pyrazol-4-yl]-1,3-benzothiazole] |  | 0.133 | 
13 | O=C(O)c1ccc2nc(-c3cc(Cl)cc(Cl)c3)oc2c1 [tafamidis, 2-(3,5-dichlorophenyI)-1,3-benzoxazole-6-carboxylic acid, reference compound] |  |  | reversibility of binding to TTR (Bap-tagged TTR protein): reversible; t1/2 (Bap-tagged TTR protein; tafamidis binding to TTR, n=24): 40.8 s

Now from value to molecule, other results behind:

Row | Kd (Bap-tagged TTR protein) [µM] | EC50 [2, 5] [µM] | SMILES | other results
14 | 0.039 | 0.031 | Cc1n[nH]c(C)c1-c1cccc2scnc12 [Example 1, 4-(3,5-dimethyl-1H-pyrazol-4-yl)-1,3-benzothiazole] | Kd [1, 3]: 0.025 µM; Kd [1, 4]: 0.458 µM
15 | 0.049 | 0.04 | Cc1n[nH]c(C)c1-c1ccc(C(F)(F)F)c2scnc12 [Example 4, 4-(3,5-dimethyl-1H-pyrazol-4-yl)-7-(trifluoromethyl)-1,3-benzothiazole] | 
16 | 0.297 | 0.894 | Cc1n[nH]c(C)c1-c1nccc2scnc12 [Example 10, 4-(3,5-dimethyl-1H-pyrazol-4-yl)[1,3]thiazolo[4,5-c]pyridine] | 
17 |  | 0.0363 | COc1ccc(-c2c(C)n[nH]c2C)c2ncsc12 [Example 11, 4-(3,5-dimethyl-1H-pyrazol-4-yl)-7-methoxy-1,3-benzothiazole] | 
18 | 0.058 |  | Cc1cc(-c2c(C)n[nH]c2C)c2ncsc2c1 [Example 13, 4-(3,5-dimethyl-1H-pyrazol-4-yl)-6-methyl-1,3-benzothiazole] | EC50 [2]: 0.0214 µM
19 | 0.027 |  | Cc1n[nH]c(C)c1-c1cc(F)cc2scnc12 [Example 15, 4-(3,5-dimethyl-1H-pyrazol-4-yl)-6-fluoro-1,3-benzothiazole] | EC50 [2]: 0.0205 µM
20 |  | 0.165 | Cc1n[nH]c(C)c1-c1ccnc2scnc12 [Example 19, 7-(3,5-dimethyl-1H-pyrazol-4-yl)[1,3]thiazolo[5,4-b]pyridine] | 
